According to patent US9994518B2, “Alpha-7 nicotinic acetylcholine receptor modulators and uses thereof” (MERCK SHARP & DOHME CORP., priority 2014, dated 2018):
pEC50: −log10 of the molar value.

Experiments:
[1] = target: T1, α7 nAChR (rat α7/CHO cells) (Rattus norvegicus, UniProt Q05941); test: Evaluation of modulators of α7 nAChRs using the IonFlux HT automated patch clamp system (potentiation of EC20 ACh-evoked currents); type: cell-based; details: percent potentiation of ACh (EC20, approx. 60 μM) response in α7/CHO cells; 6-point dose response 0.03-10 μM; whole cell patch clamp
T1 construct: expressed in transfected cells; host or cells: CHO cells (α7/CHO)
T1 sequence (Q05941 23-502): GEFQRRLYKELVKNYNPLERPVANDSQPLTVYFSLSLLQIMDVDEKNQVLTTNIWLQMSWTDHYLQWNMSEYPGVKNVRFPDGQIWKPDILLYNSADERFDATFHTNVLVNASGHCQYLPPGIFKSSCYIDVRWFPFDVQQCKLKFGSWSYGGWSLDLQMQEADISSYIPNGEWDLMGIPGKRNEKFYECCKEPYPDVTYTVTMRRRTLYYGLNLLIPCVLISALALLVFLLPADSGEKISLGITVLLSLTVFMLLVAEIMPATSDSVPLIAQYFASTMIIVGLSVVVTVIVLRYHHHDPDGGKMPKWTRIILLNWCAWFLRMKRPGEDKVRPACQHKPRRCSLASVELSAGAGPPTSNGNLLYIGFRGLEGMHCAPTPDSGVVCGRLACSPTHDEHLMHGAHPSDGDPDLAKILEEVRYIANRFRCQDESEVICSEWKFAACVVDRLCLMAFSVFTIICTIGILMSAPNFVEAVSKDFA
Description: Evaluation of Modulators of α7 nAChRs Using the IonFlux^HT Automated Patch Clamp System
Acetylcholine was freshly prepared for each plate run and used at an EC20 concentration (approximately 60 μM for rat α7/CHO) to induce α7 nAChR currents on the IonFlux^HT. To prepare the ACh solution for a single plate, 6 μl of the 100 mM ACh stock was diluted into 10 ml of 0.3% DMSO/external solution
Test compounds were prepared for a 6-point dose response from 0.03-10 μM. Working stocks were prepared from serial dilutions of 10 mM DMSO stock solutions to give a final DMSO concentration of 0.3%. 80 μl of the final concentration of each compound was added to the appropriate wells in an IonFlux^HT assay plate.
2×T175 flasks of α7/CHO cells (˜60-70% confluent) were washed twice with PBS and trypsinized (2 ml) for 3.5 minutes at 37° C./5% CO2. Cells were collected in F-12K complete media, counted and the number required for the assay was calculated, for example, 2×10^6 cells in a final volume of 670 μl of external solution were required to load one zone (one quarter) of an IonFlux^HT assay plate. The correct number of cells was pelleted by centrifuge, the supernatant was discarded and the cell pellet was resuspend in external solution at the required concentration so that cells were added in a volume of 80 μl per well to the IonFlux^HT assay plate.
Calculation of the Effect of Compounds on ACh Mediated Currents in α7 nAChRs:
The effect of test compounds on EC20 ACh-evoked currents was calculated by the formula: […]
The rinse protocol was the initial step in preparation of the IonFlux^HT plate. 80 μl of MilliQ water was added to every well (except Out wells) and the IonFlux^HT assay plate was run through the water rinse protocol on the machine. At the end of the run, the water was discarded from the wells. This action was repeated twice.
Briefly, to prepare the plate for the assay aliquots of cells, compounds and internal and external solutions were added to wells of the prepared IonFlux^HT plate (80 μl/well) (solutions made to manufacturer's specifications). Automated whole cell patch-clamp recordings were made using the standard IonFlux^HT single application protocol. Vacuum was held at 6 psi/hg throughout the experiment and membrane potential was held at −80 mV for 35 sec and then at −60 mV during data acquisition. Two ACh (EC20) pulses were applied at the beginning of the assay, 90 seconds apart, to provide an ACh baseline response then cells were perfused with modulators for 89 sec before ACh (EC20) was applied for 1 s. The calculation of percent potentiation of the acetylcholine response for each well was performed by the data analysis software supplied with the IonFlux^HT.
The following compounds were tested in accordance with the above-procedure for activity and the EC50 values determined are reported: […]

pEC50 [1]	melting point [°C]	SMILES
6.98	158 to 160	COc1ccc(Cl)cc1OC[C@@H]1[C@@H](c2ccc(S(N)(=O)=O)cc2)C1(C)C (racemic) [Exp. 1, ±trans 4-{3-[(5-chloro-2-methoxyphenoxy)methyl]-2,2-dimethylcyclopropyl}benzenesulfonamide]
6.26	–	COc1cc(Cl)ccc1OC[C@H]1[C@H](c2ccc(NS(N)(=O)=O)cc2)C1(C)C (single isomer, unassigned) [Exp. 23]

The next lines start with the compound.

SMILES	pEC50 [1]	melting point [°C]
COc1ccc(Cl)cc1OC[C@@H]1[C@@H](c2ccc(S(N)(=O)=O)cc2)C12CCCC2 (racemic) [Exp. 2, ±trans 4-{2-[(5-chloro-2-methoxyphenoxy)methyl]spiro[2.4]hept-1-yl}benzenesulfonamide]	6.84	56 to 58
COc1ccccc1CC[C@@H]1[C@@H](c2ccc(S(N)(=O)=O)cc2)C1(C)C (single isomer, unassigned) [Exp. 48]	6.21	–
COc1ccc(Cl)cc1OC[C@H]1[C@H](c2ccc(S(N)(=O)=O)cc2)C1(C)C (single isomer, unassigned) [Exp. 11]	5.44	–
